Reference: ChEMBL document CHEMBL4480400, “Development of an N-Acyl Amino Acid That Selectively Inhibits the Glycine Transporter 2 To Produce Analgesia in a Rat Model of Chronic Pain” (J Med Chem, 2019)
pIC50: −log10 of the molar value.

How the values were obtained:
Assay type in all cases: cell-based
[1] = biological target: T1, Sodium- and chloride-dependent glycine transporter 1 (Homo sapiens, UniProt P48067); assay: Inhibition of recombinant human GlyT1b expressed in Xenopus laevis oocytes assessed as reduction in channel current by two-electrode voltage clamp electrophysiology
T1 sequence (P48067 whole entry): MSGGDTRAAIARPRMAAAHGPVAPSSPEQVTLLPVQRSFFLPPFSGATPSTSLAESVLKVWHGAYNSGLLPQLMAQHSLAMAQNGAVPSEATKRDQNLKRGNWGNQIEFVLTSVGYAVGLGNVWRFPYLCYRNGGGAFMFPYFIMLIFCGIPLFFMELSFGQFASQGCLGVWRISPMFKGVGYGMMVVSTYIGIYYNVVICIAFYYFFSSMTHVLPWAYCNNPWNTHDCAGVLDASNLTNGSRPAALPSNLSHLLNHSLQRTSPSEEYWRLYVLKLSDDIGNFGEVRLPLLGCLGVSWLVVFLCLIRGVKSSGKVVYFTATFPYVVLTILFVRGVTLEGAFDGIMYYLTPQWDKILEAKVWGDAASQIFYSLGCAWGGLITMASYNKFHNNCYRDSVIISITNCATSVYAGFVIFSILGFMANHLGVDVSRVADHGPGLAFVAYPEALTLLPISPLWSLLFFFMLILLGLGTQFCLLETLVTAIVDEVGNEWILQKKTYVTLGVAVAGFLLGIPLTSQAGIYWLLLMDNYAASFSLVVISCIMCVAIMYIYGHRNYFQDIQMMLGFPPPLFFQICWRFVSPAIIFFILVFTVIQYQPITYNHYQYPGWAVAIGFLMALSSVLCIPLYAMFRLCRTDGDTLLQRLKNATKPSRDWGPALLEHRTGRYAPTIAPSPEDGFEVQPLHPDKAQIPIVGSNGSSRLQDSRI

[2] = biological target: T2, Sodium- and chloride-dependent glycine transporter 2 (Homo sapiens, UniProt Q9Y345); assay: Inhibition of recombinant human GlyT2a expressed in Xenopus laevis oocytes assessed as reduction in channel current by two-electrode voltage clamp electrophysiology
T2 sequence (Q9Y345 whole entry): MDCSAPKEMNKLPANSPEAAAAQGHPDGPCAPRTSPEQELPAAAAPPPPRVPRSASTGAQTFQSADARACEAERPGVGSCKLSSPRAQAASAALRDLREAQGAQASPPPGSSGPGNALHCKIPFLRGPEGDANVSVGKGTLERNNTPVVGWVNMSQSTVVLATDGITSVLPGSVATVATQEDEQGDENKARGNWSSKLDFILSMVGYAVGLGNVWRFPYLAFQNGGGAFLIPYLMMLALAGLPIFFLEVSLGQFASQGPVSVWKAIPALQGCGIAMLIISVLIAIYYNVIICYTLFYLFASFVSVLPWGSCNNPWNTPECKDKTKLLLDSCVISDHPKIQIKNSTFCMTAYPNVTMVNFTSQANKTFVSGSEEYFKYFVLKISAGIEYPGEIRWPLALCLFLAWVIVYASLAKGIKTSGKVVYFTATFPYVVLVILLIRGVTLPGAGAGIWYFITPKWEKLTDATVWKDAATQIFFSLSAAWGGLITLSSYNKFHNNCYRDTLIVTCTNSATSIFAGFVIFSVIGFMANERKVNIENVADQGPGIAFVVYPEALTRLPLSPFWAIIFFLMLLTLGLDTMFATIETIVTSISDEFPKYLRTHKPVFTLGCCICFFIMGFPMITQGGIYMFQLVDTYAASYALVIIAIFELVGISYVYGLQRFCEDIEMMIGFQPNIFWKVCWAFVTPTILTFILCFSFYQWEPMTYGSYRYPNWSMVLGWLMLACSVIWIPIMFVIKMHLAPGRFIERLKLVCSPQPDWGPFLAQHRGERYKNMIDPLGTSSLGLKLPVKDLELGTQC

[3] = biological target: T3, Sodium- and chloride-dependent glycine transporter 2 (Homo sapiens) (UniProt Q9Y345); assay: Inhibition of recombinant human GlyT2a expressed in Xenopus laevis oocytes assessed as reduction in channel current by two-electrode voltage clamp electrophysiology relative to control
T3 sequence (whole entry): T2 sequence (Q9Y345 whole entry)

Row | pIC50 [1] | pIC50 [2] | Imax [3] | SMILES
1 | < 5.52 | 6.30 | 73.1% | CCCCCCCC/C=C\CCCCCCCC(=O)N[C@@H](CO)C(=O)O
2 | < 4.52 | 5.91 | 89.8% | CCCCCCCC/C=C\CCCCCCCC(=O)N[C@@H](C)C(=O)O
3 | < 4.52 | 6.00 | 56.7% | CCCCCCCC/C=C\CCCCCCCC(=O)N[C@@H](C(=O)O)C(C)C
4 | < 4.52 | 5.63 | 81.7% | CCCCCCCC/C=C\CCCCCCCC(=O)N[C@H](C)C(=O)O
5 | < 4.52 | < 4.52 | 35.6% | CCCCCCCC/C=C\CCCCCCCC(=O)N[C@H](CC(C)C)C(=O)O
6 | < 5.52 | 7.19 | 73.6% | CCCCCCCC/C=C\CCCCCCCC(=O)N[C@H](CO)C(=O)O
7 | < 5.52 | 7.53 | 91.2% | CCCCCCCC/C=C\CCCCCCCC(=O)N[C@@H](CCSC)C(=O)O
8 | < 4.52 | 5.93 | 90.1% | CCCCCCCC/C=C\CCCCCCCC(=O)N[C@H](C(=O)O)C(C)C
9 | < 5.00 | 6.84 | 72.2% | CCCCCCCC/C=C\CCCCCCCC(=O)N[C@@H](CC(C)C)C(=O)O
10 | < 5.52 | 6.82 | 82.7% | CCCCCCCC/C=C\CCCCCCCC(=O)N[C@@H](CCN)C(=O)O
11 | < 5.00 | 6.59 | 64.5% | CCCCCCCC/C=C\CCCCCCCC(=O)N[C@@H](CCCC)C(=O)O

More lines, now with the values behind:

Row | SMILES | pIC50 [1] | pIC50 [2] | Imax [3]
12 | CCCCCCCC/C=C\CCCCCCCC(=O)N[C@@H](CCc1ccccc1)C(=O)O | < 5.00 | 6.82 | 75.1%
13 | CCCCCCCC/C=C\CCCCCCCC(=O)N[C@H](CCCNC(=N)N)C(=O)O | < 5.52 | 7.16 | 70.9%
14 | CCCCCCCC/C=C\CCCCCCCC(=O)N[C@@H](Cc1cnc[nH]1)C(=O)O | < 5.52 | 6.89 | 78.4%
15 | CCCCCCCC/C=C\CCCCCCCC(=O)N[C@H](Cc1ccccc1)C(=O)O | < 5.00 | < 5.00 | 42.3%
16 | CCCCCCCC/C=C\CCCCCCCC(=O)N[C@H](Cc1cnc[nH]1)C(=O)O | < 5.52 | 6.50 | 82.1%
17 | CCCCCCCC/C=C\CCCCCCCC(=O)N[C@H](Cc1c[nH]c2ccccc12)C(=O)O | < 5.00 | < 5.00 | 14.2%
18 | CCCCCCCC/C=C\CCCCCCCC(=O)N[C@H](CC(=O)O)C(=O)O | < 5.00 | 5.74 | 92.5%
19 | CCCCCCCC/C=C\CCCCCCCC(=O)N[C@@H](CCCN)C(=O)O | < 5.52 | 7.50 | 86%
20 | CCCCCCCC/C=C\CCCCCCCC(=O)N[C@H](CCc1ccccc1)C(=O)O | < 5.00 | < 5.00 | 10.2%
21 | CCCCCCCC/C=C\CCCCCCCC(=O)N[C@H](CCC(=O)O)C(=O)O | < 5.00 | 5.43 | 91.6%
22 | CCCCCCCC/C=C\CCCCCCCC(=O)N[C@@H](CCCNC(=N)N)C(=O)O | < 5.52 | 7.32 | 87.2%
23 | CCCCCCCC/C=C\CCCCCCCC(=O)N[C@@H](CC(=O)O)C(=O)O | < 5.00 | 6.06 | 76.7%
24 | CCCCCCCC/C=C\CCCCCCCC(=O)N[C@@H](CCC(=O)O)C(=O)O | < 5.00 | 5.36 | 100%
25 | CCCCCCCC/C=C\CCCCCCCC(=O)N[C@@H](CCCCN)C(=O)OC | < 5.52 | 7.04 | 78.8%
26 | CCCCCCCC/C=C\CCCCCCCC(=O)N[C@@H](CC(N)=O)C(=O)O | < 5.00 | 6.21 | 92.7%
27 | CCCCCCCC/C=C\CCCCCCCC(=O)NCCCCCN | < 5.52 | 6.25 | 86.7%
28 | CCCCCCCC/C=C\CCCCCCCC(=O)N[C@@H](Cc1ccccc1)C(=O)O | < 5.00 | 6.67 | 54.7%
